This note sets out measurements from PubChem BioAssay (NCI).

Molecules are shown by their SMILES. “And” between values parts separate entries of the source, which are not always exact repeats. Identical values can stand only once.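 All cell lines were grown in 96-well plates and treated with compound for 48 hours. Here, GI50 denotes the concentration required for 50% inhibition of growth. Definition used: TGI = concentration required for complete inhibition of growth.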

Common to all, as to assay: inhibition of tumour cell growth, NCI panel, 48 h
Assay [1] relates to HCT-116 colon.
For assay [2], the system named is HOP-18 NSCLC.
In assay [3] the test system is RXF 393 renal.
Assay [4] has as its system A498 renal.
The test system of assay [5] is UACC-62 melanoma.
Assay [6] concerns HOP-92 NSCLC.
In assay [7] the test system is DMS 114 small cell lung.
Assay [8] has as its system SK-MEL-2 melanoma.
The test system of assay [9] is DLD-1 colon.
Assay [10] relates to SF-268 CNS.
For assay [11], the system named is XF 498 CNS.
Assay [12] deals with HS 578T breast.

As to `COc1ccc(/C=C/C(=O)c2c(-c3ccccc3)nn(C)c(=O)c2N2CC2C)cc1` (stereo not drawn), the TGI is over 100 µM in [1]; over 100 µM in [2]; 93.6 µM in assay [3]; 80.7 µM in assay [4]; 71.2 µM in [5]; over 100 µM in [6]. Besides, the TGI is 90.6 µM in assay [7], 47.6 µM in assay [8], over 100 µM in assay [9] and over 100 µM in [10].
Take `O=P(CN1CCOCC1)(c1ccccc1)c1ccccc1`: the TGI in assay [1], in assay [3], in assay [4], in [5], in assay [6] and in assay [7] was over 100 µM each time. The TGI in assay [8], in assay [11] and in assay [10] was over 100 µM in each case.
`CN(C)CCCN1c2ccccc2Sc2ccc(C(F)(F)F)cc21`: the GI50 in assay [1] is 1.64 µM; in assay [12], 1.63 µM; in [3], 1.32 µM; in [4], 1.05 µM; in assay [5], 1.46 µM; in assay [6] it was 1.04 µM. Also, the GI50 was 1.79 µM in [8] and 1.75 µM in [10]. Moreover, the TGI in assay [1] was 3.13 µM and 28.5 µM and 27.2 µM; in assay [12] it was 3.7 µM and 28.5 µM; in [6], 2.99 µM and 26.3 µM; in [7] it was 34 µM; in assay [8] it was 3.69 µM and 30.5 µM; in [9] it was 31.9 µM. Besides, the TGI in assay [10] was 3.94 µM and 31.8 µM and 29.2 µM.
`O=C(/C=C/c1ccccc1)c1ccc(Cl)cc1Cl`: the TGI was determined as 24 µM in assay [1]; 60.5 µM in [2]; 50.6 µM in assay [4]; 30 µM in assay [5]; 69.3 µM in [6]; 33.3 µM in assay [7]. The TGI turned out to be 33.3 µM in assay [9] and 59.8 µM in [10].
In the case of `C/C=C/C=C/c1cc2cc3c(c(O)c2c(=O)[nH]1)C1(CC3)C(O)=c2c(=O)c3c(=O)cc(OC)c(=O)c=3c(=O)c2=C1O` (stereo not drawn), the TGI was 7.47 µM in assay [2]; 26.7 µM in assay [12]; 3.13 µM and 10.4 µM in assay [3]; 4.34 µM and 14.7 µM in assay [5]; 2.28 µM in assay [6]; 4.83 µM in [7]. Also, the TGI in assay [8] is 14.2 µM and 4.86 µM; in [9], 17.9 µM; in assay [10], 17.6 µM and 40.3 µM. The GI50 in assay [3] is 0.622 µM and 3.36 µM; in assay [6], 0.415 µM; in assay [8] it was 0.249 µM and 0.885 µM.
`FC(F)(F)c1ccccc1C1SCc2nc3ccccc3n21` (stereo not drawn): the TGI in [1] is over 100 µM; in [2] it was over 100 µM; in assay [3], over 100 µM; in [4], 94.4 µM; in assay [5] it was over 100 µM; in assay [6], 53.3 µM. In addition, the TGI in [7], in assay [8], in [9] and in [10] was over 100 µM in each case.
With `Cc1cc(N(CCC#N)CCC#N)ccc1/C=C(\NC(=O)/C=C/c1ccccc1)C(=O)Nc1ccccc1Cl`, the TGI in assay [1] is over 100 µM; in assay [3], over 100 µM; in assay [4], over 100 µM; in assay [5], over 100 µM; in assay [6] it was 94.5 µM; in assay [7], over 100 µM. Further, the TGI in [8], in assay [9] and in assay [10] was over 100 µM throughout.
On to `CCOc1ccc(NC(=O)CC2SC(=Nc3ccc(C)cc3)NC2=O)cc1` (stereo not drawn), for which the TGI in assay [1], in assay [3], in assay [4], in assay [5], in assay [7] and in [9] was over 100 µM each time. For the same compound, the TGI in assay [11] and in [10] was over 100 µM in each case.
On to `COC(=O)Cc1cc(=O)n2c3ccccc3n(C)c2c1C#N`, for which the TGI in assay [1], in [3], in [4], in [7], in [8] and in [9] was over 100 µM throughout. For the same compound, the TGI in [11] and in assay [10] was over 100 µM each time.
Consider `COc1cccc(C2CC(=O)Nc3c2c(C)nn3-c2nc3ccccc3[nH]2)c1OC` (stereo not drawn), for which the GI50 in assay [1] was 3.36 µM; in assay [12] it was 3.51 µM; in assay [3], 2.91 µM; in assay [5] it was 2.52 µM; in assay [6], 2.95 µM; in assay [8] it was 6.37 µM. In addition, the GI50 in assay [10] is 4.92 µM. Also, the TGI came out at 14.6 µM in assay [1]; 47.5 µM in [12]; 10.6 µM in [3]; 8.38 µM in [4]; 7.86 µM in assay [5]; 24.3 µM in assay [6]. For the same compound, the TGI is 32.7 µM in assay [8] and 61.3 µM in assay [10].
With `Nc1ncn([C@H]2CC(O)[C@@H](CO)S2)c(=O)n1` (stereo partly drawn), the GI50 was 0.371 µM in assay [1]; 39.3 µM in [12]; 11.1 µM in [3]; 1.99 µM in assay [4]; 8.51 µM in assay [5]; over 100 µM in assay [6]. In addition, the values for the GI50 in assay [8] and in assay [10] were 7.05 µM and 16.4 µM, respectively. The TGI in [1] is over 100 µM; in assay [12], over 100 µM; in assay [3] it was over 100 µM; in [4], 58.1 µM; in [5] it was over 100 µM; in [6] it was over 100 µM. Besides, the TGI in [8] and in assay [10] was over 100 µM throughout.
As to `Cc1nc2c(C)ccc([N+](=O)[O-])c2c(NCCCN(C)C)c1C`, the TGI in assay [1] is over 100 µM; in assay [12], over 100 µM; in assay [3] it was over 100 µM; in [4], over 49.6 µM; in assay [5], over 100 µM; in assay [6], over 100 µM. In addition, the TGI is over 70.6 µM in assay [8] and over 100 µM in assay [10].
